Measurements as given in US5153181A, “Pharmaceutical compositions comprising organic polymers containing inorganic anionic groups and method of prophylaxis and treatment of retrovirus infections in mammals using said compositions” (priority 1986, dated 1992).
Like-named read-outs stand apart in the source and are kept apart here.

Key:
[1] = cited from earlier work
[2] = target: T1, SR-D-associated reverse transcriptase (Rous sarcoma virus - Schmidt-Ruppin B, UniProt O92956); format: biochemical
T1 construct: alpha/beta heterodimer cut from Gag-Pol polyprotein

[3] = LD50 taken from published literature; conditions: in vivo; calculated from MW
Excerpt: The LD50 values are known from the literature.
The results shown in FIGS. 1A and B allow to determine the concentration of the inhibitors which result in 90% or 99% inhibition. The quotient of the LD50 values (taken from published literature) and the inhibitor concentrations indicated in FIG. 1 is the efficiency index shown in Table I.

[4] = known from the literature; cited from earlier work
[5] = poly(rA) template, oligo(dT)10 primer, FIGS. 1A and B

T1 sequence (O92956 709-1567): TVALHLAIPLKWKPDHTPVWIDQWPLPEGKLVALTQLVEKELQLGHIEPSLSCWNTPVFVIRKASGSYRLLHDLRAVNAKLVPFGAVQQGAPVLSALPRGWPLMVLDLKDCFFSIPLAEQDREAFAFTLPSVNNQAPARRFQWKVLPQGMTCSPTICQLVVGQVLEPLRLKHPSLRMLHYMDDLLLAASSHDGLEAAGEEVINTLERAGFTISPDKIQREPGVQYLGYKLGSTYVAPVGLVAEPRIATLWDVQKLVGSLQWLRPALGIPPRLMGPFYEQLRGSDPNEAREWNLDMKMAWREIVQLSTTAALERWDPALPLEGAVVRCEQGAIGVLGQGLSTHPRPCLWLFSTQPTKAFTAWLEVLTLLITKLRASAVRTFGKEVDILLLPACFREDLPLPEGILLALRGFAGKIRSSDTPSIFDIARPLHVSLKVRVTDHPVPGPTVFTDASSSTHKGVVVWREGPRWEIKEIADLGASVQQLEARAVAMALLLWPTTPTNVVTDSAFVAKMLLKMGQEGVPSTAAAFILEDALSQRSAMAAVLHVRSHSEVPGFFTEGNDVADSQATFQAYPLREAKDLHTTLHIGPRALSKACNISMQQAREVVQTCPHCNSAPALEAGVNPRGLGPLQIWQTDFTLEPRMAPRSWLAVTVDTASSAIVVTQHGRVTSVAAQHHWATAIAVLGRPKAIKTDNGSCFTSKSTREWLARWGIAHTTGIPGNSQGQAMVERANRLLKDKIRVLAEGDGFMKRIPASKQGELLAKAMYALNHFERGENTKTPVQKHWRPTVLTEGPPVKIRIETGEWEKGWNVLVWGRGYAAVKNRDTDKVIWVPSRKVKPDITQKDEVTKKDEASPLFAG

Row | Molecule | Inhibition of RNA-dependent DNA synthesis (3H-TMP incorporation) [2, 5] | further results
1 | O=C(O)P(=O)(O)O [foscarnet] | Somewhat less inhibitory | Toxicity in clinical trials [1]: considerable toxicity; LD50 [3]: 500 mg/kg
2 | Cc1ccc(C(=O)Nc2ccc(S(=O)(=O)O)c3cc(S(=O)(=O)O)cc(S(=O)(=O)O)c23)cc1NC(=O)c1cccc(NC(=O)Nc2cccc(C(=O)Nc3cc(C(=O)Nc4ccc(S(=O)(=O)O)c5cc(S(=O)(=O)O)cc(S(=O)(=O)O)c45)ccc3C)c2)c1 [suramin] | – | LD50 [4]: 40 mg/kg; Inhibition of RNA-dependent DNA synthesis (3H-TMP incorporation) [2]: Somewhat less inhibitory
3 | chondroitin sulfate | Low inhibitory effect | –
4 | dextran | Low inhibitory effect | –
5 | dextran sulfate MW 8,000 | efficient inhibitors | –
6 | dextran sulfate MW 500,000 | efficient inhibitors | –
7 | dextran sulfate MW 5000 | Low inhibitory effect | –
8 | diethylamine ethyl-dextran [DEAE-dextran] | Low inhibitory effect | –
9 | heparin | Low inhibitory effect | –
10 | pentosan polysulfate MW 5,000 | Somewhat less inhibitory | –
